Measured values as given in patent publication US20240409585A1, “MACROCYCLIC IMMUNOMODULATORS” (priority 2021, published 2024).
Bridge positions count the residues as written; N and C are the ends. Square brackets hold non-standard residues; d marks the D form. Peptide text beside a SMILES is read from it. * marks the point of attachment. ξ: configuration not given here. Bip(4'-COOH) = N[C@@H](Cc1ccc(-c2ccc(C(=O)O)cc2)cc1)C(=O)O; Phe(4-COOH) = N[C@@H](Cc1ccc(C(=O)O)cc1)C(=O)O; Bip = N[C@@H](Cc1ccc(-c2ccccc2)cc1)C(=O)O; Gly(cPent) = N[C@H](C(=O)O)C1CCCC1; h4Pal = N[C@@H](CCc1ccncc1)C(=O)O; aIle = CC[C@@H](C)[C@H](N)C(=O)O; hArg = N=C(N)NCCCC[C@H](N)C(=O)O; 4Pal = N[C@@H](Cc1ccncc1)C(=O)O; Cha = N[C@@H](CC1CCCCC1)C(=O)O; Ile(3ξ) = CCC(C)[C@H](N)C(=O)O; Thr(3ξ) = CC(O)[C@H](N)C(=O)O; Ala(CN) = N#CC[C@H](N)C(=O)O; NMeNle = CCCC[C@H](NC)C(=O)O; Carboxymethyl = O=C(O)C*; NMeA = CN[C@@H](C)C(=O)O; Nle = CCCC[C@H](N)C(=O)O; Orn = NCCC[C@H](N)C(=O)O; Dab = NCC[C@H](N)C(=O)O; ξV = CC(C)C(N)C(=O)O

biological target: T1, PE-labeled human PD-L1-Ig binding to Jurkat cell line over-expressing human PD-1 (Jurkat-PD-1) (Homo sapiens, UniProt Q15116); test: Jurkat-PD-1 Cell Binding High-Content Screening Assay (CBA): Method 1; conditions: Jurkat-hPD-1 cells, PE-labeled PD-L1-Ig 20 nM final; read-out: Jurkat HPDL1 PD1 IC50 (uM) (Method 1)
T1 construct: expressed in transfected cells; host or cells: Jurkat
T1 sequence (Q15116 25-288): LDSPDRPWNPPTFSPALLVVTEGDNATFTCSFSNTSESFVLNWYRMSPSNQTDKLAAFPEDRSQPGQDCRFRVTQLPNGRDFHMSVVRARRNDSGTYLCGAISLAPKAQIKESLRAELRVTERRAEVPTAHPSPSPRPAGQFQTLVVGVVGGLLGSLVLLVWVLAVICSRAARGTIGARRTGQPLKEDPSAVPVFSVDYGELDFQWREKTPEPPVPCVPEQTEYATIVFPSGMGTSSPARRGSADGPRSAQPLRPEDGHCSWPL

SMILES	IC50 [µM]
CC(C)C[C@@H]1NC(=O)[C@H](CCN)NC(=O)[C@@H](CC(C)C)NC(=O)[C@H](C)N(C)C(=O)[C@H](CCC(=O)O)NC(=O)[C@H](Cc2ccc(-c3ccccc3)cc2)NC(=O)[C@H](C(C)C)NC(=O)[C@H](Cc2c[nH]c3ccccc23)NC(=O)[C@H](CC(=O)O)NC(=O)[C@H](Cc2ccc(OCC(=O)O)cc2)NC(=O)[C@H](CC(N)=O)NC(=O)CSC[C@@H](C(=O)NCC(N)=O)NC(=O)[C@H](C(C)O)NC(=O)[C@H](C(C)C)NC1=O (stereo partly drawn) [Compound 2086] ({CH2CO}-NY(Carboxymethyl)DWV[Bip]E[NMeA][dL][Dab]LV[Thr(3ξ)]CG-NH2; thioether N-14)	0.2
CC(C)C[C@H]1NC(=O)[C@H](C)N(C)C(=O)[C@H](CCC(=O)O)NC(=O)[C@H](Cc2ccc(-c3ccccc3)cc2)NC(=O)[C@H](C(C)C)NC(=O)[C@H](Cc2c[nH]c3ccccc23)NC(=O)[C@H](CC(=O)O)NC(=O)[C@H](Cc2ccc(O)cc2)NC(=O)[C@H](C(C)O)NC(=O)CSC[C@@H](C(=O)NCC(N)=O)NC(=O)[C@H](C(C)O)NC(=O)[C@H](C(C)C)NC(=O)[C@H](CC2CCCCC2)NC(=O)[C@H](CCN)NC1=O (stereo partly drawn) [Compound 2095] ({CH2CO}-[Thr(3ξ)]YDWV[Bip]E[NMeA][dL][Dab][Cha]V[Thr(3ξ)]CG-NH2; thioether N-14)	0.04
CC(C)C[C@@H]1NC(=O)[C@H](Cc2c[nH]c3ccccc23)NC(=O)[C@H](CC(=O)O)NC(=O)[C@H](Cc2ccc(OCC(=O)O)cc2)NC(=O)[C@H](Cc2ccccc2)NC(=O)CSC[C@@H](C(=O)N[C@@H](CC(N)=O)C(N)=O)NC(=O)[C@H](CO)NC(=O)[C@H](C(C)C)NC(=O)[C@H](CC(C)C)NC(=O)[C@H](CCN)NC(=O)[C@@H](CC(C)C)NC(=O)[C@H](C)N(C)C(=O)[C@H](Cc2cnc[nH]2)NC(=O)[C@H](Cc2ccc(-c3ccccc3)cc2)NC1=O [Compound 2096] ({CH2CO}-FY(Carboxymethyl)DWL[Bip]H[NMeA][dL][Dab]LVSCN-NH2; thioether N-14)	0.04
CC(C)C[C@@H]1NC(=O)[C@H](Cc2c[nH]c3ccccc23)NC(=O)[C@H](CC(=O)O)NC(=O)[C@H](Cc2ccc(OCC(=O)O)cc2)NC(=O)[C@H](Cc2ccc(-c3ccc(C(=O)O)cc3)cc2)NC(=O)CSC[C@@H](C(=O)N[C@@H](CC(N)=O)C(N)=O)NC(=O)[C@H](CO)NC(=O)[C@H](C(C)C)NC(=O)[C@H](CC(C)C)NC(=O)[C@H](CCN)NC(=O)[C@@H](CC(C)C)NC(=O)[C@H](C)N(C)C(=O)[C@H](Cc2cnc[nH]2)NC(=O)[C@H](Cc2ccc(-c3ccccc3)cc2)NC1=O [Compound 2097] ({CH2CO}-[Bip(4'-COOH)]Y(Carboxymethyl)DWL[Bip]H[NMeA][dL][Dab]LVSCN-NH2; thioether N-14)	0.03
CC(C)C[C@@H]1NC(=O)[C@H](Cc2c[nH]c3ccccc23)NC(=O)[C@H](CC(=O)O)NC(=O)[C@H](Cc2ccc(OCC(=O)O)cc2)NC(=O)[C@H](Cc2ccccc2)NC(=O)CSC[C@@H](C(=O)N[C@@H](CC(N)=O)C(N)=O)NC(=O)[C@H](Cc2cnc[nH]2)NC(=O)[C@H](C(C)C)NC(=O)[C@H](CC(C)C)NC(=O)[C@H](CCN)NC(=O)[C@@H](CC(C)C)NC(=O)[C@H](C)N(C)C(=O)[C@H](C(C)C)NC(=O)[C@H](Cc2ccc(-c3ccccc3)cc2)NC1=O [Compound 2098] ({CH2CO}-FY(Carboxymethyl)DWL[Bip]V[NMeA][dL][Dab]LVHCN-NH2; thioether N-14)	0.01
CC(C)C[C@@H]1NC(=O)[C@H](Cc2c[nH]c3ccccc23)NC(=O)[C@H](CC(=O)O)NC(=O)[C@H](Cc2ccc(OCC(=O)O)cc2)NC(=O)[C@H](CCc2ccncc2)NC(=O)CSC[C@@H](C(=O)N[C@@H](CC(N)=O)C(N)=O)NC(=O)[C@H](Cc2cnc[nH]2)NC(=O)[C@H](C(C)C)NC(=O)[C@H](CC(C)C)NC(=O)[C@H](CCN)NC(=O)[C@@H](CC(C)C)NC(=O)[C@H](C)N(C)C(=O)[C@H](C(C)C)NC(=O)[C@H](Cc2ccc(-c3ccccc3)cc2)NC1=O [Compound 2099] ({CH2CO}-[h4Pal]Y(Carboxymethyl)DWL[Bip]V[NMeA][dL][Dab]LVHCN-NH2; thioether N-14)	0.02
CC[C@@H](C)[C@@H]1NC(=O)[C@H](Cc2ccc(-c3ccccc3)cc2)NC(=O)[C@H](CC(C)C)NC(=O)[C@H](Cc2c[nH]c3ccccc23)NC(=O)[C@H](CC(=O)O)NC(=O)[C@H](Cc2ccc(C(=O)O)cc2)NC(=O)[C@H](Cc2ccc(OCC(=O)O)cc2)NC(=O)CSC[C@@H](C(=O)N[C@@H](CCCCN)C(N)=O)NC(=O)[C@H](CO)NC(=O)C(C(C)C)NC(=O)[C@H](CC(C)C)NC(=O)[C@H](CC(N)=O)NC(=O)[C@@H](CC(C)C)NC(=O)[C@H](C)N(C)C1=O (stereo partly drawn) [Compound 2100] ({CH2CO}-Y(Carboxymethyl)[Phe(4-COOH)]DWL[Bip][aIle][NMeA][dL]NL[ξV]SCK-NH2; thioether N-14)	0.03
CC[C@@H](C)[C@@H]1NC(=O)[C@H](Cc2ccc(-c3ccccc3)cc2)NC(=O)[C@H](Cc2cnc[nH]2)NC(=O)[C@H](Cc2c[nH]c3ccccc23)NC(=O)[C@H](CC(=O)O)NC(=O)[C@H](Cc2ccc(C(=O)O)cc2)NC(=O)[C@H](Cc2ccc(OCC(=O)O)cc2)NC(=O)CSC[C@@H](C(=O)N[C@@H](CCCCN)C(N)=O)NC(=O)[C@H](CO)NC(=O)C(C(C)C)NC(=O)[C@H](CC(C)C)NC(=O)[C@H](CC(N)=O)NC(=O)[C@@H](CC(C)C)NC(=O)[C@H](C)N(C)C1=O (stereo partly drawn) [Compound 2101] ({CH2CO}-Y(Carboxymethyl)[Phe(4-COOH)]DWH[Bip][aIle][NMeA][dL]NL[ξV]SCK-NH2; thioether N-14)	0.11
CC[C@@H](C)[C@@H]1NC(=O)[C@H](Cc2ccc(-c3ccccc3)cc2)NC(=O)[C@H](CC#N)NC(=O)[C@H](Cc2c[nH]c3ccccc23)NC(=O)[C@H](CC(=O)O)NC(=O)[C@H](Cc2ccc(C(=O)O)cc2)NC(=O)[C@H](Cc2ccc(OCC(=O)O)cc2)NC(=O)CSC[C@@H](C(=O)N[C@@H](CCCCN)C(N)=O)NC(=O)[C@H](CO)NC(=O)C(C(C)C)NC(=O)[C@H](CC(C)C)NC(=O)[C@H](CC(N)=O)NC(=O)[C@@H](CC(C)C)NC(=O)[C@H](C)N(C)C1=O (stereo partly drawn) [Compound 2102] ({CH2CO}-Y(Carboxymethyl)[Phe(4-COOH)]DW[Ala(CN)][Bip][aIle][NMeA][dL]NL[ξV]SCK-NH2; thioether N-14)	0.19

More lines, now with the values ahead:

IC50 [µM]	SMILES
0.17	CC(C)C[C@H]1NC(=O)[C@H](C)N(C)C(=O)[C@H](CCC(=O)O)NC(=O)[C@H](Cc2ccc(-c3ccccc3)cc2)NC(=O)[C@H](C(C)C)NC(=O)[C@H](Cc2c[nH]c3ccccc23)NC(=O)[C@H](CC(N)=O)NC(=O)[C@H](Cc2ccc(O)cc2)NC(=O)[C@H](Cc2ccncc2)NC(=O)CSC[C@@H](C(=O)N[C@@H](C)C(N)=O)NC(=O)[C@H](C(C)O)NC(=O)[C@H](C(C)C)NC(=O)[C@H](CC2CCCCC2)NC(=O)[C@H](CCN)NC1=O (stereo partly drawn) [Compound 2088] ({CH2CO}-[4Pal]YNWV[Bip]E[NMeA][dL][Dab][Cha]V[Thr(3ξ)]CA-NH2; thioether N-14)
0.05	CCCC[C@@H]1NC(=O)[C@H](Cc2ccc(-c3ccccc3)cc2)NC(=O)[C@H](C(C)C)NC(=O)[C@H](Cc2c[nH]c3ccccc23)NC(=O)[C@H](CC(=O)O)NC(=O)[C@H](Cc2ccc(C(=O)O)cc2)NC(=O)[C@H](Cc2ccncc2)NC(=O)CSC[C@@H](C(=O)N[C@@H](CC(N)=O)C(N)=O)NC(=O)[C@H](CO)NC(=O)[C@H](C(C)C)NC(=O)[C@H](CC2CCCCC2)NC(=O)[C@H](CCN)NC(=O)[C@@H](C)NC(=O)[C@H](CCCC)N(C)C1=O [Compound 2089] ({CH2CO}-[4Pal][Phe(4-COOH)]DWV[Bip][Nle][NMeNle][dA][Dab][Cha]VSCN-NH2; thioether N-14)
0.14	CCCC[C@H]1C(=O)N[C@H](C)C(=O)N[C@@H](CCN)C(=O)N[C@@H](CC2CCCCC2)C(=O)N[C@@H](C(C)C)C(=O)N[C@@H](CO)C(=O)N[C@H](C(=O)N[C@@H](CC(N)=O)C(N)=O)CSCC(=O)N[C@@H](Cc2ccncc2)C(=O)N[C@@H](Cc2ccc(C(=O)O)cc2)C(=O)N[C@@H](CC(=O)O)C(=O)N[C@@H](Cc2c[nH]c3ccccc23)C(=O)N[C@@H](C(C)C)C(=O)N[C@@H](Cc2ccc(-c3ccccc3)cc2)C(=O)N[C@@H](CCCN)C(=O)N1C [Compound 2090] ({CH2CO}-[4Pal][Phe(4-COOH)]DWV[Bip][Orn][NMeNle][dA][Dab][Cha]VSCN-NH2; thioether N-14)
0.11	CCC(C)[C@@H]1NC(=O)[C@H](Cc2ccc(-c3ccccc3)cc2)NC(=O)[C@H](C(C)C)NC(=O)[C@H](Cc2c[nH]c3ccccc23)NC(=O)[C@H](CC(=O)O)NC(=O)[C@H](Cc2ccc(O)cc2)NC(=O)[C@H](Cc2ccncc2)NC(=O)CSC[C@@H](C(=O)N[C@@H](C)C(N)=O)NC(=O)[C@H](C(C)O)NC(=O)[C@H](C(C)C)NC(=O)[C@H](CC2CCCCC2)NC(=O)[C@H](Cc2c[nH]cn2)NC(=O)[C@@H](CC(C)C)NC(=O)[C@H](C)N(C)C1=O (stereo partly drawn) [Compound 2093] ({CH2CO}-[4Pal]YDWV[Bip][Ile(3ξ)][NMeA][dL]H[Cha]V[Thr(3ξ)]CA-NH2; thioether N-14)
0.02	CC(C)C[C@H]1NC(=O)[C@H](C)N(C)C(=O)[C@H](CCC(=O)O)NC(=O)[C@H](Cc2ccc(-c3ccccc3)cc2)NC(=O)[C@H](C(C)C)NC(=O)[C@H](Cc2c[nH]c3ccccc23)NC(=O)[C@H](CC(=O)O)NC(=O)[C@H](Cc2ccc(O)cc2)NC(=O)[C@H](CCCCNC(=N)N)NC(=O)CSC[C@@H](C(=O)NCC(N)=O)NC(=O)[C@H](C(C)O)NC(=O)[C@H](C(C)C)NC(=O)[C@H](CC2CCCCC2)NC(=O)[C@H](CCN)NC1=O (stereo partly drawn) [Compound 2094] ({CH2CO}-[hArg]YDWV[Bip]E[NMeA][dL][Dab][Cha]V[Thr(3ξ)]CG-NH2; thioether N-14)
0.04	CC[C@@H](C)[C@@H]1NC(=O)[C@H](Cc2ccc(-c3ccccc3)cc2)NC(=O)[C@H](C2CCCC2)NC(=O)[C@H](Cc2c[nH]c3ccccc23)NC(=O)[C@H](CC(=O)O)NC(=O)[C@H](Cc2ccc(C(=O)O)cc2)NC(=O)[C@H](Cc2ccc(OCC(=O)O)cc2)NC(=O)CSC[C@@H](C(=O)N[C@@H](CCCCN)C(N)=O)NC(=O)[C@H](CO)NC(=O)C(C(C)C)NC(=O)[C@H](CC(C)C)NC(=O)[C@H](CC(N)=O)NC(=O)[C@@H](CC(C)C)NC(=O)[C@H](C)N(C)C1=O (stereo partly drawn) [Compound 2103] ({CH2CO}-Y(Carboxymethyl)[Phe(4-COOH)]DW[Gly(cPent)][Bip][aIle][NMeA][dL]NL[ξV]SCK-NH2; thioether N-14)
